“Also recorded” adds a separate entry of the source.
Experiments:
Assay type in all cases: in vivo
control mice [1] = test: Radiant tail flick antinociception, control (not pretreated) mice; details: controls; for ED50 (CI) i.c.v. / ED50 (CI) i.t.: tail flick
Protocol: (§1) Compounds were dissolved in 10% DMSO and then diluted to less than 1% DMSO in the test solutions. […] Compounds were administered in a 5-μl volume in conscious mice, either i.c.v. (Haley T J & McCormick W G, Br J Pharmacol Chemother, 1957, 12(1), 12-15) or i.t. (Hylden J L K & Wilcox G L, Eur. J. Pharmacol., 1980, 67(2-3), 313-316). Peak times were determined by comparing the percent maximal possible effect (% MPE) at 5, 10, 20 and 60 minutes after injection.
(§2) The tail flick assay is used first to test for antinociception as described by D'Amour and Smith (D'AMOUR FE & SMITH DL (1941) J. Pharmacol. Exp. Ther. 72(1):74-79) and modified by Dewey et al. (Dewey W L, Harris L S, Howes J F, & Nuite JA (1970) J. Pharmacol. Exp. Ther. 175(2):435-442). For the measurement of the tail-flick latency, mice are wrapped in a light cloth and held gently in one hand with the tail positioned in the apparatus (Tail Flick Analgesia Meter, Columbus Instruments, Columbus, Ohio) for radiant heat stimulus. The tail-flick response is elicited by applying radiant heat to the dorsal side of the tail. The intensity of the heat is set so that the mouse flicks its tail within 2 to 3 seconds. The test latency is measured before drug treatment (control) and again after the drug treatment (test) at the peak time of the compound; a 10 second maximum cut-off time is used to prevent damage to the tail. Antinociception is quantified according to the Harris L S & Pierson A K, J. Pharmacol. Exp. Ther., 1964, 143(2):141-148, as the percent maximal possible effect (% MPE), which is calculated as: % MPE=(Test−Control/10−Control)×100.
(§3) At least three groups of four to ten mice are used for each dose response curve. ED50 values with 95% confidence intervals (C.I.) are computed with GraphPad Prism 4 by using nonlinear regression methods.

LPS pretreated mice [2] = test: Radiant tail flick antinociception, LPS pretreated mice; details: for % MPE / dose range of antinociception: LPS pretreated; for ED50 (CI) i.t. / ED50 (CI) i.c.v.: LPS pretreated (1 mg/kg 24 hours i.p.)
Protocol: as §1
The first group mice were pretreated with lipopolysaccaride (LPS, 1 mg/kg, i.p. from Escherichia coli 0111:B4; Sigma-Aldrich, St. Louis, Mo.) for 24 hours before testing for antinociception of compounds 2-6 (Seo Y-J, et al., Pharmacol., Biochem. Behav., 2008, 91, 121-127). This group was compared to a group without pretreatment.
as §2, §3

control mice [3] = test: Acute (24 hour) tolerance, tail flick, control mice; details: controls
Protocol: (§4) Acute tolerance utilizing the radiant tail flick assay was measured by comparing the ED80-90 dose on day 1 to the same dose measured 24 hours later on the same mouse. For the LPS pretreated mice, no additional LPS was given to the mice for the acute tolerance test. […] However, the effect was less robust 72 hours after the initial LPS injection. Thus confirming that the acute tolerance test was accurate for the LPS pretreated mice.

LPS pretreated mice [4] = test: Acute (24 hour) tolerance, tail flick, LPS pretreated mice; details: 24 hours
Protocol: as §4

[5] = tested on: C3H mice with bone cancer; test: von Frey mechanical hyperalgesia, bone cancer (fibrosarcoma) mice; details: bone cancer, 250 pmol/mouse, day 3
Protocol: The mouse hind paw model of bone cancer was the third model of pain (Wacnik P W, et al., Pain Research & Management, 2000, 16, 615-637; and Wacnik P W, et al., J Neurosci, 2001, 21(23), 9355-9366). Cell Culture: National Collection of Type Cultures (NCTC) clone 2472 fibrosarcoma cells, originally derived from a connective tissue tumor in a C3H mouse, were obtained from the American Type Cell Culture Collection (Rockville, Md.). Cells were grown and maintained in accordance with standard cell culturing techniques. NCTC cells were grown to 80-90% confluence in 75 cm^2 flasks (Corning, Lowell, Mass.) in Dulbecco's Modification of Eagles Medium (Invitrogen, Carlsbad, Calif.) fortified with 10% Horse Serum and sodium bicarbonate. Cell cultures were housed in a water-jacketed incubator with 5% carbon dioxide at 37° C.
Cells were prepared for implantation by first pouring off the culture medium and washing with phosphate-buffered saline (PBS). Trypsin was added to flask and placed in incubator for 3 minutes. Upon detachment, cells were suspended in an ample amount of culture medium to terminate enzymatic activity and centrifuged for 10 min at 1000 g. Fibrosarcoma cells were re-suspended in a known amount of PBS for counting, quantified on a hemacytometer, pelleted and re-suspended in PBS. Fibrosarcoma cells were again re-suspended to a final concentration of 2×10^5 cells in 20 μl. Initially, animals were anesthetized in a plexi-glass chamber using 3% isoflurane in 3 L/min oxygen. Once each mouse was completely anesthetized, a maintenance rate of 2% isoflurane in 1.5 L/min oxygen was maintained during the short implantation procedure. Tumor cells were manually injected by boring into the calcaneus bone using a 29½ gauge needle connected to a sterile 0.3 ml insulin syringe as previously described (19). Following injection, mice were allowed to recover in cages on a heating pad. Animals showing any signs of dysfunction (e.g. problems with ambulation, lethargy or excessive bleeding) or distress where euthanized according to CO2 guidelines.
C3H mice were was placed under a clean glass cup on a wire mesh grid and allowed to acclimate for thirty minutes. Mechanical hypersensitivity was tested using a von Frey filament #3.61 (which produces a force of […]) to the plantar surface of both the left and right hind paw with enough force to cause it to bow slightly. Starting with the right hind paw, the number of positive responses out of a total of 10 applications was recorded followed by the left hind paw. Positive response was indicated by a sharp withdrawal or flinching behavior of the paw. Baseline von Frey measurements were obtained prior to treatment with CFA, tumor and saline controls. […] Subsequent measurements were taken at various time points after intrathecal (i.t.) injection of test compounds on days 3, 7, 10, 14, 17, and 21. % MPE was calculated ((Time-point value−Day# baseline)/(Day 0 baseline−day# baseline))*100 (Smeester B A, Al-Gizawiy M, & Beitz A J (2012) Evidence-Based Complementary and Alternative Medicine 2012:16). Animals with saline injection served as controls for tumor cell implantation and tumor-induced nociception. Behavioral assessments were conducted during the light cycle at approximately the same time each day. The investigator performing the von Frey testing was blinded to the animal and compound injected.
A well-established rodent hind paw model of bone cancer pain (Wacnik P W, et al., J Neurosci. 2001, 21(23), 9355-66) was to examine the effects of representative bivalent ligands on tumor-induced nociception. The inbred C3H/He line is syngeneic to the fibrosarcoma cells used in these experiments and allows these cells to grow tumors without rejection. Male C3H mice were used for all experiments. Animals were maintained on a 12 hour light/dark cycle with food and water ad libitum.
Cells were prepared for implantation by first pouring off the culture medium and washing with phosphate-buffered saline (PBS). […]

| SMILES | % MPE (control mice [1]; i.c.v., 250 pmol/mouse) | % MPE (control mice [1]; i.t., 250 pmol/mouse) | % MPE (LPS pretreated mice [2]; i.t., 250 pmol/mouse) | ED50 (CI) i.c.v. (control mice [1]; i.c.v.) | ED50 (CI) i.t. (control mice [1]; i.t.) | ED50 (CI) i.t. (LPS pretreated mice [2]; i.t.) | % MPE (LPS pretreated mice [2]; i.c.v., 500 pmol/mouse) | dose range of antinociception (LPS pretreated mice [2]; i.t.) | Tolerance (control mice [3]; i.c.v.) | Tolerance (control mice [3]; i.t.) | Tolerance (LPS pretreated mice [4]; i.t.) | ED50 (CI) i.c.v. (LPS pretreated mice [2]; i.c.v.) | Tolerance (LPS pretreated mice [4]; i.c.v.) | % MPE (control mice [1]; i.c.v., 1000 pmol) | % MPE (control mice [1]; i.t., 2500 pmol/mouse) | % MPE (LPS pretreated mice [2]; i.c.v., 2500 pmol/mouse) | % MPE [5] |
| --- | --- | --- | --- | --- | --- | --- | --- | --- | --- | --- | --- | --- | --- | --- | --- | --- | --- |
| COc1cccc(C#Cc2cccc(C)n2)c1 [Compound 2, 2-((3-methoxyphenyl)ethynyl)-6-methylpyridine, reference compound] | 14.59 ± 4.63% MPE | 13.27 ± 3.39% MPE | 21.96 ± 10.50% MPE | – | – | – | – | – | – | – | – | – | – | – | – | – | – |
| Cc1cccc(C#Cc2cccc(OCCNC(=O)COCC(=O)N[C@H]3CC[C@@]4(O)C5Cc6ccc(O)c7c6[C@@]4(CCN5C)[C@H]3O7)c2)n1 [Compound 3, N-((4aS,7S,7aR,12bS)-4a,9-dihydroxy-3-methyl-2,3,4,4a,5,6,7,7a-octahydro-1H-4,12-methanobenzofuro[3,2-e]isoquinolin-7-yl)-2-(2-((2-(3-((6-methylpyridin-2-yl)ethynyl)phenoxy)ethyl)amino)-2-oxoethoxy)acetamide] | – | – | – | 529.6 pmol/mouse | 114.7 pmol/mouse | 8.17 pmol/mouse | 56.86 ± 8.95% MPE | nmol range | Tolerance | No Tolerance | Tolerance was also observed; also recorded: exhibited tolerance | – | – | – | – | – | – |
| Cc1cccc(C#Cc2cccc(OCCNC(=O)COCC(=O)NCCNC(=O)COCC(=O)N[C@H]3CC[C@@]4(O)C5Cc6ccc(O)c7c6[C@@]4(CCN5C)[C@H]3O7)c2)n1 [Compound 4a, N-((4aS,7S,7aR,12bS)-4a,9-dihydroxy-3-methyl-2,3,4,4a,5,6,7,7a-octahydro-1H-4,12-methanobenzofuro[3,2-e]isoquinolin-7-yl)-2-((14-(3-((6-methylpyridin-2-yl)ethynyl)phenoxy)-2,7,11-trioxo-9-oxa-3,6,12-triazatetradecyl)oxy)acetamide] | – | – | – | 119.50 pmol/mouse | 34.31 pmol/mouse | 20.57 pmol/mouse | – | nmol range | Tolerance | Tolerance | created tolerance; also recorded: exhibited tolerance | 80.85 pmol/mouse | Tolerance | – | – | – | – |
| Cc1cccc(C#Cc2cccc(OCCNC(=O)COCC(=O)NCCCNC(=O)COCC(=O)N[C@H]3CC[C@@]4(O)C5Cc6ccc(O)c7c6[C@@]4(CCN5C)[C@H]3O7)c2)n1 [Compound 4b, N-((4aS,7S,7aR,12bS)-4a,9-dihydroxy-3-methyl-2,3,4,4a,5,6,7,7a-octahydro-1H-4,12-methanobenzofuro[3,2-e]isoquinolin-7-yl)-2-((1-(3-((6-methylpyridin-2-yl)ethynyl)phenoxy)-4,8,14-trioxo-6-oxa-3,9,13-triazapentadecan-15-yl)oxy)acetamide] | – | – | – | 113.3 pmol/mouse | 36.08 pmol/mouse | 10.08 pmol/mouse | – | nmol range | No Tolerance | No Tolerance | devoid of tolerance; also recorded: No Tolerance | 64.36 pmol/mouse | No Tolerance | – | – | – | – |
| Cc1cccc(C#Cc2cccc(OCCNC(=O)COCC(=O)NCCCCCCCNC(=O)COCC(=O)N[C@H]3CC[C@@]4(O)C5Cc6ccc(O)c7c6[C@@]4(CCN5C)[C@H]3O7)c2)n1 [Compound 4d, N-((4aS,7S,7aR,12bS)-4a,9-dihydroxy-3-methyl-2,3,4,4a,5,6,7,7a-octahydro-1H-4,12-methanobenzofuro[3,2-e]isoquinolin-7-yl)-2-((1-(3-((6-methylpyridin-2-yl)ethynyl)phenoxy)-4,8,18-trioxo-6-oxa-3,9,17-triazanonadecan-19-yl)oxy)acetamide] | – | – | – | – | 132.7 pmol/mouse | – | – | nmol range | – | No tolerance | devoid of tolerance; also recorded: No tolerance | 411.9 pmol/mouse | – | 53.76 ± 16.36% MPE | – | – | – |
| CNC(=O)COCC(=O)NCCCNC(=O)COCC(=O)NCCOc1cccc(C#Cc2cccc(C)n2)c1 [Compound 6, N-methyl-2-(1-(3-((6-methylpyridin-2-yl)ethynyl)phenoxy)-4,8,14-trioxo-6-oxa-3,9,13-triazapentadecan-15-yloxy)acetamide] | 24.87 ± 11.77% MPE | – | – | – | – | 548.7 pmol/mouse | – | – | – | – | No tolerance | – | – | – | 26.13 ± 7.27% MPE | 38.83 ± 11.59% MPE | 17.59±18.24 % MPE |
